Results on 47 compounds are retold here after patent publication US20250059220A1, “SUBSTITUTED BENZOTHIOPHENE DERIVATIVES AND METHODS OF USE THEREOF” (Merck Sharp & Dohme LLC, priority 2021, published 2025).

One experiment addresses human PTPN2 (1-387) (Homo sapiens (Human), UniProt P17706). Put plainly: Human PTPN2 Biochemical Assay. The note with it: DiFMUP substrate. In outline: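 Human PTPN2 (1-387) preincubated 30 min at RT with compound (10-point 3-fold series) in Tris pH 7.4 buffer with 0.5 mM DTT, then DiFMUP substrate added for 1 h at RT. Fluorescence at ex 360/em 460 nm, normalised to no-enzyme and enzyme controls; EC50 from 4-parameter fit.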

Another experiment addresses human PTPN1 (1-435) (Homo sapiens (Human), UniProt P18031). Kind of experiment: Human PTPN1 Biochemical Assay. The note with it: DiFMUP substrate, read-out: PTP1B IC50. In outline: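 Read-out is DiFMUP hydrolysis fluorescence (360 nm excitation, 460 nm emission) after 1 h at room temperature, following 30 min enzyme–compound preincubation.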

Chain of human PTPN2 (1-387) (P17706 other isoform, or with tags, fused parts or gaps): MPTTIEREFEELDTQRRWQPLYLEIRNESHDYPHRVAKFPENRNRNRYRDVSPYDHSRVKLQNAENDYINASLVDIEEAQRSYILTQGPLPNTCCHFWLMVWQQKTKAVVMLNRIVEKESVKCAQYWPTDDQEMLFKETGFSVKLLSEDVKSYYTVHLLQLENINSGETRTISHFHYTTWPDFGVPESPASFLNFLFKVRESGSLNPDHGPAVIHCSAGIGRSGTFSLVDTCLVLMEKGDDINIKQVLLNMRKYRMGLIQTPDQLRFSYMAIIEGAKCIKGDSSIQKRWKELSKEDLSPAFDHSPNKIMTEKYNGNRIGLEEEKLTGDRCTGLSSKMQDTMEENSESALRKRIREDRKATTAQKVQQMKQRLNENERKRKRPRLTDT
Chain of human PTPN1 (1-435) (P18031 whole entry): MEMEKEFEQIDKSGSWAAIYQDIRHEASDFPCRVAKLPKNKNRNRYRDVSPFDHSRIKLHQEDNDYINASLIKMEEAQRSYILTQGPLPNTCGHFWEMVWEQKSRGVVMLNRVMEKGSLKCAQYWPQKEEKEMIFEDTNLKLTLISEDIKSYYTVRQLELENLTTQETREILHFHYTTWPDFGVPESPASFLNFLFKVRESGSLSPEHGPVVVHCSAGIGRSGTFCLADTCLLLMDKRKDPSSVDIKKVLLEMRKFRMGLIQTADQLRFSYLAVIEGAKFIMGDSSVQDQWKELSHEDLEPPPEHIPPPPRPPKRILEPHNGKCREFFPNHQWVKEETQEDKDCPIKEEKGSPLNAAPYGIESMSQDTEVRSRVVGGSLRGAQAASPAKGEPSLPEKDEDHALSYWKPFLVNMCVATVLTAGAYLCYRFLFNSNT

Usually IC50 stands for the concentration that gives 50% inhibition. Consider `N#CCCCCCCOc1cc(C(N)=O)cc2c(Br)c(C(F)(F)P(=O)(O)O)sc12` [Compound 243], for which the IC50 at human PTPN2 (1-387) was found to be 0.0479 µM; on human PTPN1 (1-435), 0.0684 µM.
The corresponding values for `N#CCOc1cc(C(N)=O)cc2c(Br)c(C(F)(F)P(=O)(O)O)sc12` [Compound 244] are 0.227 µM and 0.259 µM.
Regarding `NC(=O)COc1cc(C(N)=O)cc2c(Br)c(C(F)(F)P(=O)(O)O)sc12` [Compound 245], the IC50 against human PTPN2 (1-387) was 1.46 µM; at human PTPN1 (1-435) it was 0.903 µM.
Turning to `NC(=O)c1cc(OCc2cc(F)cc(C(F)(F)F)c2)c2sc(C(F)(F)P(=O)(O)O)c(Br)c2c1` [Compound 247], the IC50 was determined as 0.0544 µM against human PTPN2 (1-387) and 0.0942 µM on human PTPN1 (1-435).
The corresponding values for `CS(=O)(=O)N1CCC(Oc2cc(C(N)=O)cc3c(Br)c(C(F)(F)P(=O)(O)O)sc23)C1` (stereo not shown) [Compound 248] are 0.05 µM and 0.054 µM.
The corresponding values for `NC(=O)c1cc(OCC2CC3(CC3)C2)c2sc(C(F)(F)P(=O)(O)O)c(Br)c2c1` [Compound 249] are 0.0609 µM and 0.0845 µM.
The corresponding values for `NC(=O)c1cc(OCC2CC2(F)F)c2sc(C(F)(F)P(=O)(O)O)c(Br)c2c1` (stereo not shown) [Compound 250] are 0.0541 µM and 0.0697 µM.
`NC(=O)c1cc(OCCOCC(F)F)c2sc(C(F)(F)P(=O)(O)O)c(Br)c2c1` [Compound 251]: the IC50 turned out to be 0.271 µM at human PTPN2 (1-387) and 0.423 µM at human PTPN1 (1-435).
The matching figures for `NC(=O)c1cc(OCCCOC(F)(F)F)c2sc(C(F)(F)P(=O)(O)O)c(Br)c2c1` [Compound 252]: 0.106 µM and 0.11 µM.
The corresponding values for `NC(=O)c1cc(OCC2CCC(F)(F)CC2)c2sc(C(F)(F)P(=O)(O)O)c(Br)c2c1` [Compound 253] are 0.0846 µM and 0.118 µM.
The corresponding values for `CC(C)CCOc1cc(C(N)=O)cc2c(Br)c(C(F)(F)P(=O)(O)O)sc12` [Compound 254] are 0.111 µM and 0.155 µM.
For the compound `NC(=O)c1cc(OCCC2CC2)c2sc(C(F)(F)P(=O)(O)O)c(Br)c2c1` [Compound 255], the IC50 was 0.0964 µM at human PTPN2 (1-387) and 0.139 µM at human PTPN1 (1-435).
The corresponding values for `CS(=O)(=O)NCCCOc1cc(C(N)=O)cc2c(Br)c(C(F)(F)P(=O)(O)O)sc12` [Compound 256] are 0.128 µM and 0.066 µM.
The corresponding values for `NC(=O)c1cc(OCC(=O)Nc2c(F)cccc2F)c2sc(C(F)(F)P(=O)(O)O)c(Br)c2c1` [Compound 257] are 0.294 µM and 0.237 µM.
In the case of `O=P(O)(O)C(F)(F)c1sc2c(OCCCC(F)(F)F)cc(-c3cnn[nH]3)cc2c1Br` [Compound 258, ((3-bromo-5-(1H-1,2,3-triazol-5-yl)-7-(4,4,4-trifluorobutoxy)benzo[b]thiophen-2-yl)difluoromethyl)phosphonic acid], the half-inhibitory concentration (IC50) amounted to 0.00839 µM against human PTPN2 (1-387) and 0.0043 µM at human PTPN1 (1-435).
The corresponding values for `Nc1cc(OCCCC(F)(F)F)c2sc(C(F)(F)P(=O)(O)O)c(Br)c2c1` [Compound 259, ((5-amino-3-bromo-7-(4,4,4-trifluorobutoxy)benzo[b]thiophen-2-yl)difluoromethyl)phosphonic acid] are 0.338 µM and 0.18 µM.
The matching figures for `O=P(O)(O)C(F)(F)c1sc2c(OCCCC(F)(F)F)cc(-c3ccn[nH]3)cc2c1Br` [Compound 260, ((3-bromo-5-(1H-pyrazol-5-yl)-7-(4,4,4-trifluorobutoxy)benzo[b]thiophen-2-yl)difluoromethyl)phosphonic acid]: 0.0157 µM and 0.0114 µM.
The matching figures for `N=C(N)c1cc(OCCCC(F)(F)F)c2sc(C(F)(F)P(=O)(O)O)c(Br)c2c1` [Compound 262, ((3-bromo-5-carbamimidoyl-7-(4,4,4-trifluorobutoxy)benzo[b]thiophen-2-yl)difluoromethyl)phosphonic acid]: 0.113 µM and 0.042 µM.
On to `O=P(O)(O)C(F)(F)c1sc2c(OCCCC(F)(F)F)cc(CN3CCOCC3)cc2c1Br` [Compound 263, ((3-bromo-5-(morpholinomethyl)-7-(4,4,4-trifluorobutoxy)benzo[b]thiophen-2-yl)difluoromethyl)phosphonic acid], for which the 50% inhibitory concentration (IC50) against human PTPN2 (1-387) was 0.651 µM; on human PTPN1 (1-435), 0.386 µM.
Take `NC(=O)c1cc(OCCC2CCCS2(=O)=O)c2sc(C(F)(F)P(=O)(O)O)c(Br)c2c1` (stereo not shown) [Compound 264, ((3-bromo-5-carbamoyl-7-(2-(1,1-dioxidotetrahydrothiophen-2-yl)ethoxy)benzo[b]thiophen-2-yl)difluoromethyl)phosphonic acid]: the half-inhibitory concentration (IC50) turned out to be 0.0263 µM against human PTPN2 (1-387) and 0.024 µM at human PTPN1 (1-435).
The corresponding values for `O=C(NCc1cccnn1)c1cc(OCCCCn2ccnc2)c2sc(C(F)(F)P(=O)(O)O)c(Br)c2c1` [Compound 265] are 0.0603 µM and 0.062 µM.
The corresponding values for `O=C(NCc1cccnn1)c1cc(OCCCc2cccnc2)c2sc(C(F)(F)P(=O)(O)O)c(Br)c2c1` [Compound 266] are 0.0129 µM and 0.0174 µM.
The matching figures for `O=C(NCc1cccnn1)c1cc(OCCCc2ccncc2)c2sc(C(F)(F)P(=O)(O)O)c(Br)c2c1` [Compound 267]: 0.0122 µM and 0.026 µM.
As for `O=C(NCc1cccnn1)c1cc(OCCCc2cncs2)c2sc(C(F)(F)P(=O)(O)O)c(Br)c2c1` [Compound 268], the IC50 at human PTPN2 (1-387) is 0.02 µM; at human PTPN1 (1-435), 0.0157 µM.
The matching figures for `NC(=O)c1cc(OCCCc2cncs2)c2sc(C(F)(F)P(=O)(O)O)c(Br)c2c1` [Compound 269]: 0.0264 µM and 0.0371 µM.
The matching figures for `CS(=O)(=O)CCCOc1cc(C(N)=O)cc2c(Br)c(C(F)(F)P(=O)(O)O)sc12` [Compound 270]: 0.0216 µM and 0.0233 µM.
The corresponding values for `NC(=O)c1cc(OCCC(F)(F)F)c2sc(C(F)(F)P(=O)(O)O)c(Br)c2c1` [Compound 271] are 0.338 µM and 0.4 µM.
With `NC(=O)c1cc(OCCCC(F)(F)C(F)(F)F)c2sc(C(F)(F)P(=O)(O)O)c(Br)c2c1` [Compound 272], the half-inhibitory concentration (IC50) on human PTPN2 (1-387) was determined as 0.0472 µM; on human PTPN1 (1-435), 0.035 µM.
The corresponding values for `CCOCCCOc1cc(C(N)=O)cc2c(Br)c(C(F)(F)P(=O)(O)O)sc12` [Compound 273] are 0.132 µM and 0.093 µM.
The matching figures for `NC(=O)c1cc(OCCCCC(F)(F)F)c2sc(C(F)(F)P(=O)(O)O)c(Br)c2c1` [Compound 274]: 0.0649 µM and 0.043 µM.
Regarding `NC(=O)c1cc(OCC2CC(F)(F)C2(F)F)c2sc(C(F)(F)P(=O)(O)O)c(Br)c2c1` (stereo not shown) [Compound 275], the 50% inhibitory concentration (IC50) against human PTPN2 (1-387) came to 0.176 µM; on human PTPN1 (1-435), 0.083 µM.
The matching figures for `NC(=O)c1cc(OCC2CC3(C2)CC(F)(F)C3)c2sc(C(F)(F)P(=O)(O)O)c(Br)c2c1` [Compound 276]: 0.0273 µM and 0.017 µM.
The matching figures for `C[C@@H]1C[C@@]1(F)COc1cc(C(N)=O)cc2c(Br)c(C(F)(F)P(=O)(O)O)sc12` [Compound 277]: 0.108 µM and 0.069 µM.
The corresponding values for `CC(C)(C#N)CCCOc1cc(C(N)=O)cc2c(Br)c(C(F)(F)P(=O)(O)O)sc12` [Compound 278] are 0.0174 µM and 0.016 µM.
For `NC(=O)c1cc(OC[C@@H]2CC[C@H]2C(F)(F)F)c2sc(C(F)(F)P(=O)(O)O)c(Br)c2c1` [Compound 279], the IC50 against human PTPN2 (1-387) was determined as 0.231 µM; on human PTPN1 (1-435), 0.097 µM.
The matching figures for `NC(=O)c1cc(OCC2CC(OC(F)(F)F)C2)c2sc(C(F)(F)P(=O)(O)O)c(Br)c2c1` (stereo not shown) [Compound 280]: 0.0994 µM and 0.062 µM.
The matching figures for `CC(F)(F)CCCOc1cc(C(N)=O)cc2c(Br)c(C(F)(F)P(=O)(O)O)sc12` [Compound 281]: 0.0278 µM and 0.018 µM.
The matching figures for `NC(=O)c1cc(OCC[C@@H]2C[C@H]2C(F)(F)F)c2sc(C(F)(F)P(=O)(O)O)c(Br)c2c1` [Compound 282]: 0.168 µM and 0.071 µM.
`CC12CC(COc3cc(C(N)=O)cc4c(Br)c(C(F)(F)P(=O)(O)O)sc34)(C1)C2` [Compound 283]: the 50% inhibitory concentration (IC50) against human PTPN2 (1-387) came to 0.0502 µM; on human PTPN1 (1-435), 0.028 µM.
With `NC(=O)c1cc(OCC2CC3(CCC3)C2)c2sc(C(F)(F)P(=O)(O)O)c(Br)c2c1` [Compound 284], the figures for the half-maximal inhibitory concentration (IC50) against human PTPN2 (1-387) and at human PTPN1 (1-435) were 0.0645 µM and 0.042 µM, respectively.
For the compound `NC(=O)c1cc(OCCCCC(F)(F)C(F)(F)F)c2sc(C(F)(F)P(=O)(O)O)c(Br)c2c1` [Compound 285], the IC50 at human PTPN2 (1-387) came out at 0.0779 µM; at human PTPN1 (1-435), 0.045 µM.
On to `NC(=O)c1cc(OCCC2CC2(F)F)c2sc(C(F)(F)P(=O)(O)O)c(Br)c2c1` (stereo not shown) [Compound 286], for which the IC50 is 0.0769 µM against human PTPN2 (1-387) and 0.04 µM on human PTPN1 (1-435).
The corresponding values for `NC(=O)c1cc(OCC2C3CC4C(C3)C24)c2sc(C(F)(F)P(=O)(O)O)c(Br)c2c1` (stereo not shown) [Compound 287] are 0.0453 µM and 0.016 µM.
The corresponding values for `N#CC1(c2ccc(COc3cc(C(N)=O)cc4c(Br)c(C(F)(F)P(=O)(O)O)sc34)cc2)CC1` [Compound 288] are 0.00686 µM and 0.0073 µM.
The matching figures for `CC[C@@H]1C[C@H]1COc1cc(C(N)=O)cc2c(Br)c(C(F)(F)P(=O)(O)O)sc12` [Compound 289]: 0.0632 µM and 0.0536 µM.
As for `NC(=O)c1cc(OCC23COC(CF)(C2)C3)c2sc(C(F)(F)P(=O)(O)O)c(Br)c2c1` [Compound 290], the half-inhibitory concentration (IC50) was found to be 0.00974 µM on human PTPN2 (1-387) and 0.011 µM on human PTPN1 (1-435).
Turning to `NC(=O)c1cc(OCCC(F)(F)C(F)(F)C(F)F)c2sc(C(F)(F)P(=O)(O)O)c(Br)c2c1` [Compound 291], the half-maximal inhibitory concentration (IC50) against human PTPN2 (1-387) worked out at 0.0268 µM; on human PTPN1 (1-435) it was 0.021 µM.
